Common to all, as to test: DTP human tumour cell line panel, 48 h
Assay [1] has as its system 786-0 renal.
Assay [2] has as its system CCRF-CEM leukemia.
The subject of assay [3] is EKVX NSCLC.
Assay [4] relates to HL-60(TB) leukemia.
For assay [5], the system named is MALME-3M melanoma.
Assay [6] concerns SK-MEL-5 melanoma.
Assay [7] concerns SNB-75 CNS.
Assay [8] concerns SR leukemia.
Assay [9] relates to UACC-62 melanoma.
The subject of assay [10] is NCI/ADR-RES ovarian.

Values joined by “and” are separate entries in the source; they are usually repeats but may differ in a detail not shown here. Identical values can stand only once.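 These data come from cells grown in 96-well plates and exposed to compound for 48 hours at five concentrations. The concentration for 50% growth inhibition is given as GI50. TGI marks complete inhibition of growth.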

As to `Cc1oc2c(C)c3oc(=O)cc(C)c3cc2c1CNC(=O)[C@@H]1OCCOCCOCCOCCOCCOC1C(=O)O` (stereo not given in full), the total growth inhibition concentration (TGI) in [1] is 45 µM; in assay [2], more than 100 µM; in [3], more than 100 µM; in assay [4], more than 100 µM; in assay [5], more than 100 µM; in assay [6] it was more than 100 µM. In addition, the total growth inhibition concentration (TGI) in assay [7], in assay [8] and in assay [9] was more than 100 µM throughout.
In the case of `O=c1ccc(N=Nc2ccc([N+](=O)[O-])cc2)ccc1O`, the GI50 in assay [1] is 5.99 µM; in assay [2], 3.68 µM; in [3], 4.29 µM; in assay [4] it was 3.47 µM; in assay [5], 14.8 µM; in [6], 6.55 µM. Also, the GI50 in assay [7] was 10.8 µM; in assay [8], 4.13 µM; in [9] it was 8.45 µM. Also, the TGI in [1] is more than 100 µM; in assay [2] it was more than 100 µM; in assay [3] it was more than 100 µM; in [4], 38.8 µM; in assay [5], more than 100 µM; in [6] it was more than 100 µM. Moreover, the TGI in assay [7] was more than 100 µM; in assay [8], more than 100 µM; in [9], 43.9 µM.
Turning to `CC(C)(O)C#Cc1ccc(/C=C/C(=O)c2ccccc2)s1`, the GI50 was 14.8 µM in [1]; 13.6 µM in [2]; 17.9 µM in assay [3]; 16.4 µM in [5]; 18.3 µM in assay [10]; 16.1 µM in [6]. In addition, the GI50 in [7] was 13.7 µM; in assay [8] it was 3.85 µM; in assay [9], 13.7 µM. Moreover, the TGI worked out at 28.8 µM in [1]; 64.9 µM in assay [2]; 32 µM in assay [3]; 36.1 µM in assay [5]; 39 µM in assay [10]; 30.5 µM in assay [6]. For the same molecule, the TGI worked out at 27 µM in assay [7], 13.8 µM in [8] and 26.6 µM in [9].
On to `Cc1ccccc1C1=[N+]([O-])c2ccccc2C1=O`, for which the TGI came to 31.3 µM in assay [1]; 54.5 µM in assay [2]; 35.4 µM in [3]; 28.9 µM in assay [4]; 33.2 µM in assay [5]; 30.9 µM in assay [6]. Moreover, the TGI was 47 µM in assay [7], more than 100 µM in assay [8] and 34.6 µM in [9].
As for `c1ccc2c(c1)sc1c3cnccc3ccc21`, the TGI in [1], in assay [3], in assay [4], in assay [5], in assay [10] and in assay [6] was more than 100 µM throughout. The TGI in [7], in [8] and in assay [9] was more than 100 µM in each case.
In the case of `CCOC(=O)c1sc2ncn(Cc3cccc(Br)c3)c(=O)c2c1C`, the GI50 in [1] is 33.9 µM; in assay [3], 25 µM; in assay [4], 28.7 µM; in assay [10], 18.9 µM; in assay [6], 25.7 µM; in [7] it was 69.2 µM. For the same molecule, the GI50 in assay [8] is 8.18 µM; in [9] it was 19.5 µM. Besides, the TGI in assay [1] was more than 100 µM; in assay [3] it was more than 100 µM; in assay [4] it was more than 100 µM; in assay [10], more than 100 µM; in assay [6] it was 96 µM; in assay [7], more than 100 µM. The concentration for total growth inhibition (TGI) in [8] amounted to 88.7 µM; in assay [9], 92.3 µM.
For `CC(=O)O[C@@]12CO[C@@H]1C[C@H](O)[C@@]1(C)C(=O)[C@H](O)C3=C(C)[C@@H](OC(=O)[C@H](O)[C@@H](NC(=O)OC(C)(C)C)c4ccccc4)C[C@@](O)([C@@H](OC(=O)c4ccccc4)[C@H]21)C3(C)C`, the GI50 in assay [1] is 0.0612 µM and 0.00824 µM; in assay [2] it was 0.0286 µM and 0.0159 µM; in [3], 0.0464 µM; in assay [4], 0.00316 µM and 0.00342 µM; in assay [10] it was 0.68 µM; in assay [6], 0.0133 µM and 0.00609 µM. The GI50 in assay [7] is 0.0187 µM and 0.0127 µM; in [8], 0.0154 µM and 0.00407 µM; in [9], 0.0141 µM and 0.112 µM. The TGI in [1] was more than 100 µM; in assay [2], more than 73.6 µM; in [10], 9.76 µM; in assay [6] it was 17.1 µM; in assay [7], 0.0637 µM; in assay [8], 23.5 µM.
Consider `N#Cc1cccc(OCc2nc(N)nc(N)c2-c2ccc(Cl)c(Cl)c2)c1`, for which the GI50 in assay [1] was 0.513 µM; in assay [2], 2.03 µM; in [4] it was 1.55 µM; in assay [10] it was 1.19 µM; in [6], 1.29 µM; in assay [7], 5.67 µM. The GI50 was 2.39 µM in assay [8] and 0.442 µM in [9]. The TGI in [1], in [2], in assay [4], in [10], in assay [6] and in assay [7] was more than 100 µM throughout. For the same molecule, the TGI in assay [8] and in [9] was more than 100 µM in each case.
Take `CN(CCCCCl)P(=O)(OCc1ccc([N+](=O)[O-])o1)OCC1OC(n2ccc(N)nc2=O)C(F)(F)C1O` (stereo not given): the GI50 in assay [1] was 0.0614 µM; in assay [3], 2.48 µM; in assay [4] it was 1.56 µM; in assay [10], 0.419 µM; in assay [6], 3.2 µM; in [7], 12.5 µM. Moreover, the GI50 is 0.801 µM in [8] and 1.1 µM in assay [9]. The total growth inhibition concentration (TGI) is 1.5 µM in [1]; more than 75.4 µM in assay [3]; 17.7 µM in assay [4]; more than 100 µM in assay [10]; more than 67.1 µM in [6]; 97.5 µM in [7]. The TGI was 5.63 µM in [8] and more than 100 µM in [9].
Regarding `CC1(Cl)CC2OC3(Br)C=CC(C)(O)C2(CC1Br)C3(C)C` (stereo not given), the TGI in assay [1], in assay [2], in assay [3], in assay [4], in [5] and in assay [6] was more than 100 µM throughout. Besides, the TGI in [7], in assay [8] and in assay [9] was more than 100 µM each time.

The record behind these values is PubChem BioAssay (NCI).
